Among the data in a melting point compilation (Tetko et al.; mined from patent text by program, amines drawn as free bases though some values may be those of a salt) are melting point values, retold here.

SMILES strings stand for the structures.

On to `CCN(CC)Cc1ccc(CN2C(=O)COc3c(C)cc(C=C4SC(=S)NC4=O)cc32)cc1`, for which the melting point (as a rule, the temperature of the solid-liquid transition) was 250 to 252 °C.
For `CC1(c2cccc(F)c2C(=O)NCCCl)CCC1` the value was 108 to 110 °C.
On to `Cc1[nH]c(=O)c(-c2csc(-c3ccnc(NCc4ccccn4)c3)n2)cc1C(=O)NCc1ccccn1`, for which the melting point is more than 260 °C.
The molecule `O=[N+]([O-])c1cccc(CN(CCO)CCO)c1` came in with a melting point of 71 to 72 °C.
The molecule `CC(=O)Nc1cnc(-c2ccccc2)nc1N` came in with a melting point of 224 to 225 °C.
For `CSc1ccc(CC(=O)NC(NC(=NC#N)Nc2cccc3ncccc23)C(C)(C)C)cc1` (centres undefined) the value was 188 to 189 °C; for `O=C(O)[C@@H]1C[C@H](Cc2ccc(Cl)cc2)CN1`, 233 to 235 °C.
The same measure for `COC(=O)C(Oc1ccc(C(F)(F)F)cc1)c1ccc(OCCOc2ccc(Cl)cc2)cc1` (centres undefined): 95 to 97 °C.
`CCc1nc2cc(C(=O)NC)c(Cl)cc2n1-c1ccc(CCOC(=O)NS(=O)(=O)c2ccc(C)cc2)cc1` yielded a melting point of 201 to 204 °C.
Turning to `Nc1ncc(CCCCc2ccc(Cl)cc2)c(N)n1`, the melting point lay within 159 to 162 °C.
For `CC(OCc1ccc2ccccc2c1)(C(=O)Cl)C(F)(F)F` (centres undefined) the value was 39 to 43 °C.
Molecule `O=C1c2c(Cl)cccc2-n2cnc(-c3nc(CN4Cc5ccccc5C4)no3)c2[C@@H]2CCN12` came in with a melting point of 170 to 175 °C.
The same measure for `CC(C)(C)NS(=O)(=O)c1c(CO)nsc1OCC(F)(F)F`: 113 to 116 °C; for `COc1cc(C(=O)C#CC(=O)OCC=C(C)C)cc(OC)c1OC`: 52 to 53 °C.
In turn, `CCCc1cc(-c2cccs2)n[nH]c1=O` gave a melting point of 171 to 174 °C.
Molecule `CCCCCNC(=O)c1cnc2cccc(C)n2c1=O` gave a melting point of 112 to 116 °C.
For `O=C(NO)c1ccc(C(=O)NC/C=C/c2ccccc2)cc1` the value was 169 to 170 °C; for `Cc1nc(-c2ccccc2Cl)sc1-c1ccccc1`, 63 to 65 °C.
Molecule `COCCOCCOc1ccc(/C=C/C(=O)O)c(Oc2ncc(C(F)(F)F)cc2Cl)c1` gave a melting point of 134 °C.
For `CCCCC(Cn1cncn1)(C(=O)O)c1ccccc1OC` (centres undefined) the value was 198 °C; for `CCOC(=O)C1C(=O)N(C)C(=S)N(C)C1=O`, 90 to 93 °C; for `CNC1Cc2ccc(C(=O)Cn3cnc4cc(-c5ccc(Cl)cc5)sc4c3=O)cc2C1` (centres undefined), 226 to 229 °C.
With `CCCCCCCCCCCCCCCCCCOc1ccc(C(=O)C(=O)N(CC(=O)OCC)CC(=O)OCC)cc1`, the melting point lay within 63 to 64 °C.
The same measure for `COCC(=O)c1cccc(S(N)(=O)=O)c1`: 121 to 122 °C; for `O=[N+]([O-])c1c(O)c(Cl)cc(F)c1-c1ncc(C(F)(F)F)cc1Cl`: 67 to 72 °C; for `Cc1nc(OCCCc2cc(OC(C)C)nn2Cc2ccc(Cl)cc2Cl)c(CC(=O)O)s1`: 75 to 77 °C.
With `Cc1c(NC(=O)c2ccc(-c3ccc(Cl)cc3)cc2F)ccc2cc(CN3CCCC3)cnc12`, the melting point was in the range of 181 to 183 °C.
For `c1cc2c(cc1CCSSCCc1ccc3c(c1)OCO3)OCO2` the value was 76 to 78 °C.
`Nc1n[nH]c2c1cnc1c(NC(=O)c3c(Cl)cccc3Cl)cccc12` showed a melting point of more than 300 °C.
Regarding `C=CCc1cc(-c2cc(CC)cc(CC=C)c2O)ccc1O`, the melting point was 47 to 48 °C.
The same measure for `O=S=c1cc(-c2ccc(O)cc2)ss1`: 118 to 124 °C; for `CCOC(=O)C1CCCN1C(=O)c1cc2c(cc1[N+](=O)[O-])OCO2` (centres undefined): 94 °C; for `CC(=O)C(Cl)=NNc1ccc(Cl)cc1`: 168 to 171 °C.
`COc1cc(C(=O)NCCc2ccc(N)cc2)cc(OC)c1OC(C)=O` displayed a melting point of 178 to 180 °C.
`Cc1cn(C2CC(C#N)C(COC(c3ccccc3)(c3ccccc3)c3ccccc3)O2)c(=O)[nH]c1=O` (centres undefined) came in with a melting point of 153 to 157 °C.
For `Cc1ccc(OC2=C(Oc3ccc(C)c(C)c3)C(F)(F)C(F)(F)C2(F)F)cc1C` the value was 65 to 67 °C; for `CC(C)(C)OC(=O)N1Cc2c(Br)sc(Br)c2C1`, 144 to 145 °C; for `Cc1cccc(C(C)(C)O)c1N`, 78 to 79 °C.
The same measure for `COCCNC1CCN(c2ccc(NC(=O)c3cnn(-c4ccc(Cl)cc4)c3C)cc2C#N)CC1`: 194 °C; for `CNC1(C)CN(c2nc3c(cc2F)c(=O)c(C(=O)O)cn3C(C)(C)C)C1`: more than 300 °C; for `CC(C)COC(=O)N1CCN(C2=C(Cl)C(=O)c3ccccc3C2=O)CC1`: 92 to 94 °C.
The same measure for `O=C(O)CCCCC(=O)NC1C=CCCCC1` (centres undefined): 132 to 133 °C; for `CSC(C(=O)c1nsc(NC=O)n1)S(C)=O` (centres undefined): 130 to 132 °C; for `COC(=O)C(C)Oc1ccccc1S(=O)(=O)NC(=O)Nc1nc(C)cc(C)n1` (centres undefined): 200 to 203 °C.
`CC(CCl)N1C(=O)N(c2ccc(Cl)cc2)CC1C` (centres undefined) showed a melting point of 70 to 72 °C.
With `CCCCCCCCCCCCOc1cccc(C2=C(O)C(O)(Cc3ccccc3)N(C)C2=O)c1` (centres undefined), the melting point fell in the range of 110 to 111 °C.
`Cc1nc(-c2ccc(SC(C)C)c([N+](=O)[O-])c2)sc1C(=O)O` yielded a melting point of 233 to 235 °C.
The same measure for `CCCOc1ccc(CO)nc1Cl`: 59 to 60 °C; for `C=Cn1cc(C(=O)OCC)c(=O)c2cc(F)c(N3CCN(C)CC3)cc21`: 186 to 188 °C.
The same measure for `CC(C)OP(C)(=O)COS(=O)(=O)c1c(Cl)cccc1C(C)C` (centres undefined): 69.5 to 70.5 °C.
`c1ccc2c(Nc3ccc4[nH]ncc4c3)nc(-c3ccc4c(c3)CCO4)nc2c1` returned a melting point of 267 to 272 °C.
For `CCC(O)(CC)c1csc(-c2cccc(OCc3ccc(CO)c(CO)c3)c2)c1` the value was 47 °C.
The same measure for `O=C(CCl)c1ccc(-c2ccc(SC(F)F)cc2)cc1`: 102 to 104 °C; for `COC(=O)n1nc(C(=O)NC2CN(C)CCN(Cc3ccccc3)C2)c2ccccc21` (centres undefined): 158 to 160 °C; for `COc1ccccc1OCC(O)CNCCOc1ccc(C(N)=O)cn1` (centres undefined): 98 to 105 °C.
For `Cc1c(N2C[C@H]3CCOC[C@@]3(N)C2)c(F)cc2c(=O)c(C(=O)O)cn([C@@H]3C[C@@H]3F)c12` the value was 158 to 160 °C; for `COc1ccc(-c2ccc(C(=O)Nc3cccc(CC(=O)O)c3)o2)cc1`, 179 to 180 °C.
For the molecule `CCOC(=O)NN=Cc1c[nH]c(-c2ccccc2)n1`, the melting point lay in the range of 196 to 200 °C.
The same measure for `COCCOc1ccc(/C=C/C(=O)NS(=O)(=O)c2ccccc2)c(Oc2ncc(C(F)(F)F)cc2Cl)c1`: 136 °C; for `O=C(O)CNc1nccc(-c2nc(=O)c3ccccc3s2)n1`: 283 to 284 °C; for `N=C(Nc1ccccc1-c1ccccc1)C1CCCCC1`: 148 to 150 °C.
On to `COc1ccc(C2CCN(C(=O)C(N)=O)CC2)cc1OC1CCCC1`, for which the melting point was 66 to 66.5 °C.
Take `CC(C)(O)CC1c2ccccc2C(=O)N1CC(=O)O` (centres undefined): the melting point was 198 to 199 °C.
`COCCN(c1cccc2cc(C(=O)NCCSC(c3ccccc3)(c3ccccc3)c3ccccc3)[nH]c12)S(=O)(=O)c1cccs1`: the melting point fell in the range of 65 to 66 °C.
